Assays:
12 week old lambs = experiment: Dexamethasone 0.25 mg/kg/day for 4 days in 12 week old lambs; format: in vivo, sheep; details: after 48 hours of dexamethasone treatment
Method: (§1) FIG. 11A and FIG. 11B: Effect of 4 days of treatment with a glucocorticoid (dexamethasone, 0.25 mg/kg/day) in 12 week old lambs (filled circles, n=8) and in adult sheep (open circles, n=8) on (A) plasma NT-CNP and (B) change (?) in plasma alkaline phosphatase activity (ALP). Values are mean±SEM;
(§2) This differential response to dexamethasone was highly significant for both NT-CNP (F=5.4, p<0.001) and ALP (F=4.1, p=0.002). After 48 hours of dexamethasone treatment, plasma NT-CNP in lambs fell 30.8±3.5% from basal compared with 17.7±2.7% in adult sheep. Both the onset and offset of dexamethasone's action on NT-CNP preceded that of ALP (FIG. 11A and FIG. 11B).

adult sheep = experiment: Dexamethasone 0.25 mg/kg/day for 4 days in adult sheep; format: in vivo; details: after 48 hours of dexamethasone treatment
Method: as §1, §2

4 week old lambs = experiment: Dexamethasone 0.25 mg/kg/day for 15 days in 4 week old lambs versus saline; format: in vivo, sheep
Method: FIG. 12A, FIG. 12B, FIG. 12C and FIG. 12D: Effect of a glucocorticoid (dexamethasone, 0.25 mg/kg/day) (filled circles, n=8) or saline control treatment (open circles, n=8), administered to 4 week old lambs for 15 days, on (FIG. 12A) plasma NT-CNP (FIG. 12B) plasma alkaline phosphatase activity (FIG. 12C) metacarpal length and (FIG. 12D) body weight. Values are mean±SEM; and
In order to study a possible linkage between changes in NT-CNP and growth velocity, a more prolonged study was undertaken in younger growing lambs.
We undertook a study in normal lambs. Lambs (n=16, aged 4 weeks) either received dexamethasone (0.25 mg/kg/day) or saline injections (controls) for 15 days. The predictive effect of a plasma NT-CNP concentration (drawn 24 hours after starting treatment) on subsequent growth inhibition (defined as growth velocity less than 5% of that of control lambs) was examined by ROC curve analysis (FIG. 13). […] The area under the curve (AUC) was 0.85.

J39 antisera = experiment: Cross reactivities of the NT-CNP radioimmunoassay using the J39 antisera; format: binding, rabbit; details: NT-CNP RIA
Method: Antiserum production: Human NT-CNP(1-15) (5 mg) was conjugated to 4.2 mg of bovine serum albumin (BSA, fraction V, GibcoBRL, Life Technologies) using 62.2 mg of 1-ethyl-3(3-dimethyaminopropyl) carbodiimide at pH 7 for 18 hours and dialysed against phosphate buffered saline. Rabbits were given a primary subcutaneous injection of the antigen after emulsification with an equal volume of complete Freunds adjuvant (Sigma Chemical Co., St Lois. Mo., USA). Subsequent injections using incomplete Freunds reagent were given at monthly intervals. Rabbits were bled two weeks after each injection and tested for binding of radioactive tracer and its displacement by NT-CNP (1-15) standards.
RIA for N-terminal CNP: NT-CNP(1-15)-Tyr^16 (5 μg) was iodinated using 0.5 mCi Na^125I in the presence of 10 μg chloramine-T in 5 μl 0.5M phosphate buffer, pH 7.5 for 30 seconds, followed by the addition of 50 μg cysteine, 25 μg BSA and 20 μg KI in 100 μl buffer. The resulting mixture was loaded onto a 10 m RP300 Brownlee column and eluted with a gradient from 0-60% acetonitrile in 49 mM KH2PO4 pH 2.9 over 30 min at 1 ml/min, collecting 0.5 ml fractions. The fraction containing the major peak of radioactive NT-CNP(1-15)-[^125I]Tyr^16 was used in the RIA. Peptide standards were made from synthetic human NT-CNP(1-19) taking into account the purity data supplied. […]

[1] = molecular target: antiserum J39, raised in rabbits to a synthetic peptide corresponding to the first 15 amino acids of human ProCNP(1-103), conjugated to BSA; experiment: competitive radioimmunoassay: NT-CNP(1-19) standards displace NT-CNP(1-15)-[125I]Tyr16 from antiserum J39
[2] = molecular target: antiserum J39, raised in rabbits to a synthetic peptide corresponding to the first 15 amino acids of human ProCNP(1-103), conjugated to BSA; experiment: competitive radioimmunoassay with J39 antiserum
[3] = 4 week old lambs, 0.25 mg/kg/day for 15 days

Question: C[C@@H]1C[C@H]2[C@@H]3CCC4=CC(=O)C=C[C@]4(C)[C@@]3(F)[C@@H](O)C[C@]2(C)[C@@]1(O)C(=O)CO [dexamethasone] was tested. Which “fall in plasma NT-CNP from basal” value (12 week old lambs) did it give?
Answer: Its value is 30.8±3.5%.

Question: What about the “fall in plasma NT-CNP from basal” value (adult sheep) of the same molecule?
Answer: Its value is 17.7±2.7%.

Question: What about the “effect on metacarpal elongation” value (4 week old lambs; [3]) of the same molecule?
Answer: The value was “pronounced decrease”.

Question: And the “time for NT-CNP to return to control levels after cessation of treatment” value (4 week old lambs; [3])?
Answer: The value was ≤ 24 h.

Question: What about the “time to fall in NT-CNP after starting treatment” value (4 week old lambs; [3]) of the same molecule?
Answer: The value was ≤ 24 h.

Question: And the “effect on body weight” value (4 week old lambs; 4 week old lambs, compared with saline treated lambs)?
Answer: The value was “small but significant effect”.

Question: And the “body weight difference between treatment groups at cessation of treatment” value (4 week old lambs; day 15, dexamethasone versus saline)?
Answer: Its value is “not significantly different”.

Question: For “hBNP32: peptide tested for cross reactivity in the NT-CNP radioimmunoassay”, which Cross reactivity (J39 antisera) is on record?
Answer: Its Cross reactivity is < 0.05%.

Question: With “hproBNP(1-21): peptide tested for cross reactivity in the NT-CNP radioimmunoassay” as the molecule, how does the Cross reactivity (J39 antisera) read?
Answer: The Cross reactivity was < 0.4%.

Question: Which ED50 [1] does the source give for KPGAPPKVPRTPPAEELAE [human NT-CNP(1-19)] here?
Answer: Its ED50 is 110 pM.

Question: GLSKGCFGLKLDRIGSMSGLGC [hCNP-22] was tested. Which cross reactivity [2] did it give?
Answer: The cross reactivity was < 0.03%.

B1: hCNP-53 (peptide)
peptide: DLRVDTKSRAAWARLLQEHPNARKYKGANKKGLSKGCFGLKLDRIGSMSGLGC
Question: How did the cross reactivity [2] turn out when B1 was run?
Answer: Its cross reactivity is < 0.07%.

— US7919255B2, “Assessment of skeletal growth using measurements of NT-CNP peptides” (priority 2003, dated 2011)
